Reference: patent US10968214B2, “KRas G12C inhibitors” (Eli Lilly and Company, priority 2018, dated 2021)
Like-named read-outs stand apart in the source and are kept apart here.

Target: T1, constitutive RAS GTPAse activity in H358 cells (Homo sapiens, UniProt P01116, G12C)
T1 construct: host or cells: H358 human lung cancer cells
Test: H358 Cellular Active RAS GTPase ELISA
Assay type: cell-based
Settings: 2 hr
Source text: This assay is used to measure the ability of test compounds to inhibit constitutive RAS GTPAse activity in human lung cancer cells H358 (ATCC CRL-5807). The RAS GTPase ELISA kit (Active Motif Cat #52097) contains a 96-well plate pre-coated with glutathione in order to capture a kit-supplied GST-Raf-RBD protein. Activated RAS (GTP-bound) in cell extracts specifically bind to the Raf-RBD. Bound RAS is detected with a primary antibody that recognizes human KRas. A secondary antibody conjugated with HRP recognizes the primary antibody and a development solution provides a chemiluminescent readout.
H358 cells are plated at 80,000 cells/well in 90 μL serum free media (RPMI 1640, GIBCO) and incubated overnight at 37° C./5% CO2. The next morning, 10 μL of serially-diluted (3-fold) test compounds (500 μM top concentration) and 10 μL of controls (Maximum signal wells: 5% DMSO and Minimum signal wells: 500 μM LSN3429410 as an inhibitor) are added to the cell plate and incubated for 2 hr at 37° C./5% CO2. Complete Lysis/Binding Buffer is prepared containing Protease Inhibitor cocktail and GST-Raf-RBD and stored on ice. One hour before cell plate incubation is completed, 50 μL of GST-Raf-RBD is diluted in lysis/binding buffer, and buffer is added to the ELISA assay plate and which is incubated for 1 hour at 4° C. with gently rocking. After 2 hr, the cells are washed with 100 μL ice-cold PBS and lysed with 100 μL lysis/binding buffer. The cell plate is shaken for 10 min at RT. The cell plate is then centrifuged at 1500 rpm for 10 min at RT. During this time, 1× Wash Buffer is prepared at RT and then is used to wash (3×100 μL) the GST-Raf-RBD coated assay plate. After washing, 50 μL of cell lysate is added to the GST-Raf-RBD coated assay plate and incubated for 1 hour at RT with gentle shaking. During this incubation period, 1× Antibody Binding Buffer is prepared and brought to RT. The assay plate is washed 3×100 μL with 1× Wash Buffer and then 50 μL of Primary Antibody (diluted 1:500 in 1× Antibody Binding buffer) is added. The plate is incubated for 1 hour at RT. The assay plate is washed 3×100 μl with 1× Wash Buffer and then 50 μL of Secondary Antibody (diluted 1:5000 in 1× Antibody Binding buffer) is added and incubated for 1 hour at RT. The assay plate is washed 4×100 μL with 1× Wash buffer and then 50 μL of chemiluminescent working solution is added at RT. The assay plate is then read on an EnVision™ Plate Reader (Perkin Elmer) using a luminescence program.
The signal is converted to percent inhibition using the following equation: % Inhibition=100−[(Test Compound Signal−Median Minimum Signal)/(Median Maximum Signal−Median Minimum Signal)×100]. The Maximum signal is a control well without inhibitor.

T1 sequence (P01116 1-188 isoform P01116-2 G12C): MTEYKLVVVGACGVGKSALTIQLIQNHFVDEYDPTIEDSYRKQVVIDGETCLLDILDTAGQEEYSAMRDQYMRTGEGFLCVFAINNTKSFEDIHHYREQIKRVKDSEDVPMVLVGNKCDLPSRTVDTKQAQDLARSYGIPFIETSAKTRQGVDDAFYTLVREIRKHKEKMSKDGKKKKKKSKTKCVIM

IC50 (read-out: RAS-GTP): 37.1 nM
IC50 (read-out: relative IC50): 37 nM
SMILES: C=CC(=O)N1CCN(c2ncnc3c(F)c(-c4ccc(F)c5sc(N)nc45)c(Cl)cc23)CC1 [Example 1, 1-{4-[7-(2-Amino-7-fluoro-1,3-benzothiazol-4-yl)-6-chloro-8-fluoroquinazolin-4-yl]piperazin-1-yl}prop-2-en-1-one]
